Data from patent publication US8741932B2, “Imidazopyridine derivatives” (Piramal Enterprises Limited, priority 2009, dated 2014).

Legend:
[1] = tested on: A549; assay: Cytotoxicity assay (propidium iodide), A549; assay type: cell-based; conditions: Homo sapiens; A549 (C1a, lung); 48 hours
[2] = tested on: MDA MB 468; assay: Cytotoxicity assay (propidium iodide), MDA MB 468; assay type: cell-based; conditions: Homo sapiens; MDA MB 468 (C6b, breast); 48 hours
Procedure: (§1) Cells from cell lines as mentioned in the table given below were seeded at a density of 3000 cells/well in a white opaque 96-well plate. Following incubation at 37° C./5% CO2 for a period of 18-24 hours, the cells were treated with various concentrations (stock solution was prepared in DMSO and subsequent dilutions were made in media as per ATCC guidelines) of the representative compounds of present invention (refer table 3) for a period of 48 hours. At the end of treatment, the spent culture medium was discarded, the cells were washed with 1×PBS and 200 μl of 7 μg/ml propidium iodide was added to each well. The plates were frozen at −70° C. for at least 24 hours. For analysis, the plates were brought to RT, allowed to thaw and were read in PolarStar fluorimeter with the fluorescence setting. The percentage of viable cells in the non treated set of wells was considered to be 100 and the percentage viability following treatment was calculated accordingly. IC50 values were calculated from graphs plotted using these percentages.

[3] = tested on: MCF7; assay: Cytotoxicity assay (propidium iodide), MCF7; assay type: cell-based; conditions: Homo sapiens; MCF7 (C6c, breast); 48 hours
Procedure: as §1

[4] = tested on: H460; assay: Cytotoxicity assay (propidium iodide), H460; assay type: cell-based; conditions: Homo sapiens, NCI-H460; H460 (C1b, lung); 48 hours
[5] = target: T1, mTOR (Homo sapiens, UniProt P42345); assay: mTOR activity assay (cell ELISA, Phospho-AKT Ser 473, A2780 cells); assay type: cell-based; conditions: 1 μM, read-out: % Inhibition of mTOR activity at 1 μM
T1 construct: endogenous in cells; host or cells: A2780 ovarian cell line (ATCC)
Procedure: Seed cells (Ovarian cell line A2780, ATCC) were plated in a 96 well microtitre plate at a density of 50,000 cells/cm^2 in appropriate complete cell culture medium. The cells were allowed to adhere for 18-24 hours. The cells were allowed to starve for 24 hours. […] Then the cells were stimulated with 20% FCS for 30 minutes. A typical assay would consist of a set of unstimulated cells, a set of stimulated cells and a set of cells treated with compounds of present invention and a set of cells treated with the stimulator. The medium was discarded. The cells were fixed with 100 μL of 3.7% formaldehyde for 15 minutes. The formaldehyde was discarded by inverting the plate and tapping it on a thick tissue paper layer to remove traces. The cells were washed and permeabilized with 200 μL PBS+Triton-X 100 solution (hereafter referred to as PBS-Triton, containing 0.1% triton-X 100 in 1×PBS) three times, incubating the cells each time for 5 minutes. 100 μL blocking solution (10% FCS in PBS-Triton) was added and incubated for 1 hour at 25° C. The blocking solution was discarded and cells were incubated with the primary antibody in PBS-Triton at a dilution of 1:500 for 1 hour at RT (25° C.). [The primary antibody is Phospho-AKT (Ser 473); Cell Signaling; Cat. No. 9271]. The primary antibody solution was discarded and the cells were washed 3 times with PBS-Triton solution and incubated with the HRP-conjugated secondary antibody in PBS-Triton at a dilution of 1:500 for 1 hour at RT (25° C.). The cells were washed 3 times with PBS-Triton followed by two washes with PBS (to remove traces of triton-X 100). The OPD (o-phenylene diamine dihydrochloride) substrate was prepared for detection of the signal by dissolving one tablet set (two tablets) of SigmaFast OPD (Sigma, Cat No. P9187) in 20 mL distilled water. It should be protected from light. 100 μL OPD solutions was added to the wells and the plate was incubated in the dark for 3-5 minutes (depending upon the development of the color). The reaction was stopped by adding 50 μL 2 N H2SO4. The absorbance was measured at 490 nm. The values were expressed in the treated samples, in terms of percentage or fold decrease in AKT phosphorylation with respect to the induced sample. PI-103 (Calbiochem, USA) was used as a standard.

[6] = tested on: PC3; assay: Cytotoxicity assay (propidium iodide), PC3; conditions: Homo sapiens, PC-3, 48 h, read-out: IC50 cytotoxicity
[7] = target: T2, PI3Kα kinase (Homo sapiens, UniProt P42336); assay: Kinase assay (PI3Kα); assay type: biochemical; conditions: read-out: IC50 (μM) for PI3K inhibition
T2 construct: purchased Millipore, USA
Procedure, shortened: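 Recombinant PI3Kα (20 ng) phosphorylated 12.5 μg phosphatidylinositol with 10 μM ATP and 1 μCi ^32γ P […] in 10 mM Hepes pH 7.5, 50 mM MgCl2 for 20 min at 30° C. Lipids were extracted with MeOH/CHCl3, resolved by TLC, and labelled PI quantified by autoradiography densitometry; PI-103 served as standard.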

[8] = tested on: G361; assay: Cytotoxicity assay (propidium iodide), G361; assay type: cell-based; conditions: G-361; G361 (C9a, human melanoma); 48 hours
Procedure: as §1

[9] = tested on: BT 549; assay: Cytotoxicity assay (propidium iodide), BT 549; assay type: cell-based; conditions: Homo sapiens; BT 549 (C6d, breast); 48 hours
Procedure: as §1

[10] = tested on: A2780; assay: Cytotoxicity assay (propidium iodide), A2780; assay type: cell-based; conditions: Homo sapiens; A2780 (C3a, ovarian); 48 hours
Procedure: as §1

[11] = tested on: IL-6; assay: Human monocyte assay, LPS-stimulated IL-6; assay type: cell-based; conditions: Monocyte; human monocytes, 1 μg/ml LPS, 5 hours
Procedure, shortened: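 Adherent human PBMC-derived monocytes (2×10^4/well) were cultured 48 h, preincubated 30 min with compound or 0.5% DMSO, then stimulated with 1 μg/ml E. coli LPS for 5 h at 37° C. TNF-α and IL-6 in supernatants were measured by ELISA.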

[12] = tested on: MDA MB 231; assay: Cytotoxicity assay (propidium iodide), MDA MB 231; assay type: cell-based; conditions: Homo sapiens; MDA MB 231 (C6a, breast); 48 hours
Procedure: as §1

[13] = tested on: HT29; assay: Cytotoxicity assay (propidium iodide), HT29; assay type: cell-based; conditions: Homo sapiens, HT-29; HT29 (C4a, colon); 48 hours
Procedure: as §1

T2 sequence (P42336 whole entry): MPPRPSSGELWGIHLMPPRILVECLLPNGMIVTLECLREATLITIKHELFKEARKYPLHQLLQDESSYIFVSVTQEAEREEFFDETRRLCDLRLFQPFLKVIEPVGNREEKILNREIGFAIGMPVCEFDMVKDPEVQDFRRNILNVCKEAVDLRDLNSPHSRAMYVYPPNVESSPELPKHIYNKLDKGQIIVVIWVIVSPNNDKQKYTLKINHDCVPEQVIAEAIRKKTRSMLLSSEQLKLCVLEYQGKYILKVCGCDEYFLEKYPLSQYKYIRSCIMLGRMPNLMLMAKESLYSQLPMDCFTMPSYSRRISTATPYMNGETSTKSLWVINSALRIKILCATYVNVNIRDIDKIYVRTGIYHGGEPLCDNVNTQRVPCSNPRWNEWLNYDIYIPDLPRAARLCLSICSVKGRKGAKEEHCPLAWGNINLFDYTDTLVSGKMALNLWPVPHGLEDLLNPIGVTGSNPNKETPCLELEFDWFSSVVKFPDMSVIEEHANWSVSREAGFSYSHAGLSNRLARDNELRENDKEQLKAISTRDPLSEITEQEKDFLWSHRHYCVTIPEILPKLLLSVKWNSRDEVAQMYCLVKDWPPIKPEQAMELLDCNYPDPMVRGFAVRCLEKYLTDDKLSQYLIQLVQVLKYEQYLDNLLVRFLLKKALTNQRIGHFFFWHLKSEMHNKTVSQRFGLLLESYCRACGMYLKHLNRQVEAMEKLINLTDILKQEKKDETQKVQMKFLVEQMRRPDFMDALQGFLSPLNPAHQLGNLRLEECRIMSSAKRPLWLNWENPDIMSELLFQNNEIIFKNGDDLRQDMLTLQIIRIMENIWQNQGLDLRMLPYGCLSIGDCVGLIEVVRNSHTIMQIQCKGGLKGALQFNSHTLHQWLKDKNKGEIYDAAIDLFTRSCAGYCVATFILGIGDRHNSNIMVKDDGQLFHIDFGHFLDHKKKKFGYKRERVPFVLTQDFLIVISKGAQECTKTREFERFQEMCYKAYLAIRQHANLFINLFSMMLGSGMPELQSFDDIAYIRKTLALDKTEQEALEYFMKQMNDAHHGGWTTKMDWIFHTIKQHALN
T2 sequence (P27986 whole entry partner): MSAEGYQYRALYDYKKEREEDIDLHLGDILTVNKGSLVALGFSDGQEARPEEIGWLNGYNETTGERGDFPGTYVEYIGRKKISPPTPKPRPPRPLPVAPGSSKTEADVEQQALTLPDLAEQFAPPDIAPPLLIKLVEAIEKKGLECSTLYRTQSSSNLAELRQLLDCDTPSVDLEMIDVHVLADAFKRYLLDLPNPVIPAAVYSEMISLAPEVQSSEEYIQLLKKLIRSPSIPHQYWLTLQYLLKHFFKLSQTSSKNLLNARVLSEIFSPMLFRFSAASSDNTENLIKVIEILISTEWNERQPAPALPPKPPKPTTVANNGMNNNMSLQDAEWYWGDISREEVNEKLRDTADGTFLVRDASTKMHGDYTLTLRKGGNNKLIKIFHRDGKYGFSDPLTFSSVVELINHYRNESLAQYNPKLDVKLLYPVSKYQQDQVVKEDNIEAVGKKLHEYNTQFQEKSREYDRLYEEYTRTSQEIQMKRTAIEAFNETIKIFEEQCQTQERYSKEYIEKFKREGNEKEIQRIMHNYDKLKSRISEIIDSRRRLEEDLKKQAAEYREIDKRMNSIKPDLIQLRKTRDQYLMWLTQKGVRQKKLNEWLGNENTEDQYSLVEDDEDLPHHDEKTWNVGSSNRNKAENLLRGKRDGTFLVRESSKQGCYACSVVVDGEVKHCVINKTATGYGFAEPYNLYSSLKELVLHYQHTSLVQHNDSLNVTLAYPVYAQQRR

SMILES | IC50 [1] [µM] | IC50 [2] [µM] | IC50 [3] [µM] | IC50 [4] [µM] | inhibition at 1 µM [5] [%] | IC50 [6] [µM] | IC50 [7] [µM] | IC50 [8] [µM] | IC50 [9] [µM] | IC50 [10] [µM] | IC50 [11] [µM] | IC50 [12] [µM] | IC50 [13] [µM]
CN(N=Cc1cnc2ccc(-c3cccnc3)cn12)S(=O)(=O)c1cccc(Br)c1 [Example 7, 3-Bromo-N-methyl-N′-((6-(pyridine-3-yl)imidazo[1,2-a]pyridine-3-yl)methylene) benzenesulfonohydrazide] | > 5 | > 5 | > 5 | > 5 | 30 to 50 | > 5 | 0.01 to 0.5 | > 5 |  |  |  |  | 
CN(N=Cc1cnc2ccc(-c3cccnc3)cn12)S(=O)(=O)c1ccc(C#N)cc1 [Example 11, 4-Cyano-N-methyl-N′-((6-(pyridine-3-yl)imidazo[1,2-a]pyridine-3-yl)methylene)benzenesulfonohydrazide] | > 5 | > 5 |  | > 5 | 30 to 50 | > 5 | 0.01 to 0.5 |  | > 5 | > 5 | ≥ 5 |  | 
CN(N=Cc1cnc2ccc(-c3cccnc3)cn12)S(=O)(=O)c1ccc(F)c(Cl)c1 [Example 18, 3-Chloro-4-fluoro-N-methyl-N′-((6-(pyridine-3-yl)imidazo[1,2-a]pyridine-3-yl)methylene) benzenesulfonohydrazide] | > 5 | > 5 | > 5 | > 5 |  | > 5 | 0.01 to 0.5 | > 5 |  |  |  |  | 
Cc1cc(C)c(S(=O)(=O)N(C)N=Cc2cnc3ccc(-c4cccnc4)cn23)c(C)c1 [Example 27, N, 2,4,6-tetramethyl-N′-((6-(pyridine-3-yl)imidazo[1,2-a]pyridine-3-yl)methylene)benzenesulfonohydrazide] | > 5 | > 5 | > 5 | > 5 |  | > 5 | 0.01 to 0.5 | > 5 |  |  |  |  | 
CN(N=Cc1cnc2ccc(-c3cccnc3)cn12)S(=O)(=O)C1CCCCC1 [Example 31, N-methyl-N′-((6-(pyridine-3-yl)imidazo[1,2-a]pyridine-3-yl)methylene) cyclohexanesulfonohydrazide] | 0.01 to 5 |  |  | 0.01 to 5 |  | 0.01 to 5 |  |  |  | 0.01 to 5 |  | 0.01 to 5 | > 5
Cc1ccc([N+](=O)[O-])cc1S(=O)(=O)N(C)N=Cc1cnc2ccc(-c3ccncc3)cn12 [Example 85, N, 2-dimethyl-5-nitro-N′-((6-(pyridine-4-yl)imidazo[1,2-a]pyridine-3-yl)methylene) benzenesulfonohydrazide] | 0.01 to 5 |  |  | 0.01 to 5 |  | 0.01 to 5 |  |  |  | 0.01 to 5 |  | 0.01 to 5 | > 5
